{"source": "paper PMC7382501", "about": "(Nature Communications, 2020)", "key": {"FasRF123A": {"molecular_target": "FasRF123A (Mycobacterium tuberculosis, UniProt O05858, F123A)", "assay_type": "binding"}, "FasRL106F": {"molecular_target": "FasRL106F (Mycobacterium tuberculosis, UniProt O05858, L106F)", "assay_type": "biochemical"}, "FasRLVL": {"molecular_target": "FasRLVL (Mycobacterium tuberculosis, UniProt O05858, L106F/L185F/V163F)", "assay_type": "biochemical"}}}
{"smiles": "CCCCCCCCCCCCCCCCCCCC(=O)SCCNC(=O)CCNC(=O)[C@H](O)C(C)(C)COP(=O)(O)OP(=O)(O)OC[C@H]1O[C@@H](n2cnc3c(N)ncnc32)[C@H](O)[C@@H]1OP(=O)(O)O", "note": "[C20-CoA, arachidoyl-CoA]", "values": [{"measurement": "SPR association of FasRF123A to C20-CoA compared with FasRwt", "setting": "FasRF123A", "value": "comparable association kinetics"}, {"measurement": "acyl-CoA concentration at which the protein–DNA complex dissociates", "setting": "FasRL106F", "value": "> 4", "unit": "µM"}, {"measurement": "protein–DNA complex in the presence of ligand", "setting": "FasRLVL", "value": "remained bound to DNA"}]}
